US6544930B2, “Compact storage and shipping system for glyphosate herbicide” (Monsanto Technology LLC, priority 1998, dated 2003)
Where a name gives a salt, the structure may show the parent alone.

Columns and labels:
[1] = Specific gravity / density of aqueous glyphosate salt solutions and compositions (Mettler DA-300 meter); format: physicochemical
Procedure: Specific gravities are measured using a Mettler DA-300 Density/Specific Gravity Meter.
In a 1 liter glass vessel with magnetic stirrer are mixed 479.2 g glyphosate acid, technical grade (assay 96%), 166.0 g monoethanolamine and water to 1000 g. Reaction of the glyphosate acid with the monoethanolamine to form the MEA salt of glyphosate is exothermic. The reaction mixture is allowed to cool to room temperature. […] The density of the solution at 25° C. is […], thus the volume at 25° C. of 1000 g of this solution is 763 ml and the weight/volume concentration of glyphosate is 602 g a.e./l.
A series of aqueous solutions of glyphosate MEA salt, having a range of glyphosate a.e. concentrations, are prepared by the general procedure of Example 1. Specific gravity is measured for each solution.
[…] Cloud point is a measure of the maximum temperature at which a given aqueous composition containing a surfactant and a salt at defined concentrations forms a single-phase solution. Above the cloud point, the surfactant separates from the solution, initially as a hazy or cloudy dispersion, and, upon standing, as a distinct phase generally rising to the surface of the solution. Cloud point is determined by heating the composition until the solution becomes cloudy, and then allowing the composition to cool, with agitation, while its temperature is continuously monitored. A temperature reading taken when the solution clears is a measure of cloud point.

[2] = cited from earlier work
[3] = Viscosity of glyphosate salt solutions and compositions; format: physicochemical; settings: 25° C.; 46% a.e. by weight solution without surfactant
Procedure: Specific gravity (20/15.6° C.), viscosity at 25° C. and cloud point are recorded for each composition prepared as shown in Table 5. Cloud point is a measure of the maximum temperature at which a given aqueous composition containing a surfactant and a salt at defined concentrations forms a single-phase solution. Above the cloud point, the surfactant separates from the solution, initially as a hazy or cloudy dispersion, and, upon standing, as a distinct phase generally rising to the surface of the solution. Cloud point is determined by heating the composition until the solution becomes cloudy, and then allowing the composition to cool, with agitation, while its temperature is continuously monitored. A temperature reading taken when the solution clears is a measure of cloud point.
The maximum surfactant concentration attainable in practice in an aqueous concentrate composition containing glyphosate salt at 540 g a.e./l is compared for MEA and IPA salts. This is determined by adding a selected surfactant in increments to a 46% a.e. by weight aqueous solution of the glyphosate salt until the glyphosate weight/volume concentration falls from its initial level (565 g a.e./l for IPA salt, 602 g a.e./l for MEA salt) to 540 g a.e./l. […] When the maximum attainable surfactant concentration is reached, viscosity is measured at 25° C. […]

[4] = Glyphosate a.e. weight/volume concentration of salt solution; format: physicochemical; settings: for weight/volume concentration of glyphosate: 25° C., 46.0% by weight glyphosate a.e.; for glyphosate a.e. contained in 1 liter of solution: 30% a.e. by weight solution at 20° C.; for more glyphosate a.e. per liter than IPA salt solution: equal a.e. weight concentration (30% a.e. by weight, 20° C.)
Procedure: Thus 1 liter of 30% a.e. by weight glyphosate potassium salt solution at 20° C. contains approximately 376 g glyphosate a.e./l, whereas 1 liter of 30% a.e. by weight glyphosate IPA salt solution at 20° C. contains approximately 347 g glyphosate a.e./l. In other words, at equal a.e. weight concentration, the potassium salt solution delivers about 8% more glyphosate a.e. per liter.
Similarly, 1 liter of 30% a.e. by weight glyphosate MEA salt solution at 20° C. contains approximately 371 g glyphosate a.e./l. Therefore at equal a.e. weight concentration, the MEA salt solution delivers about 7% more glyphosate a.e. per liter than an IPA salt solution.
In a 1 liter glass vessel with magnetic stirrer are mixed 479.2 g glyphosate acid, technical grade (assay 96%), 166.0 g monoethanolamine and water to 1000 g. Reaction of the glyphosate acid with the monoethanolamine to form the MEA salt of glyphosate is exothermic. The reaction mixture is allowed to cool to room temperature. The specific gravity (20/15.6° C.) of the resulting 62.6% by weight aqueous solution of glyphosate MEA salt, containing 46.0% by weight glyphosate a.e., is measured and found to be 1.32. The density of the solution at 25° C. is […], thus the volume at 25° C. of 1000 g of this solution is 763 ml and the weight/volume concentration of glyphosate is 602 g a.e./l.

[5] = Maximum attainable surfactant concentration at 540 g a.e./l glyphosate; format: physicochemical
Procedure: The maximum surfactant concentration attainable in practice in an aqueous concentrate composition containing glyphosate salt at 540 g a.e./l is compared for MEA and IPA salts. This is determined by adding a selected surfactant in increments to a 46% a.e. by weight aqueous solution of the glyphosate salt until the glyphosate weight/volume concentration falls from its initial level (565 g a.e./l for IPA salt, 602 g a.e./l for MEA salt) to 540 g a.e./l. The study is conducted using either Surfactant A or Surfactant F of Table 3 above. When the maximum attainable surfactant concentration is reached, viscosity is measured at 25° C.

Solubility in water = format: physicochemical; settings: 20° C.; for solubility in pure water: weight of salt per weight of solution
Text: Solubility in water of the potassium and MEA salts of glyphosate is believed not to be recorded in prior art but is readily determined by procedures familiar to those skilled in the art. Similarly, aqueous solutions of these salts at concentrations greater than about 40% by weight are believed not to have been specifically disclosed, thus any unusual or unpredicted properties of such solutions have not been publicly known. Concentrations expressed as percent by weight herein relate to parts by weight of salt or acid equivalent per 100 parts by weight of solution.
The solubility of the MEA salt is very similar to the solubility of the IPA salt.

[6] = 20/18.6° C., 30% a.e. by weight monobasic salt solution
[7] = 20/15.6° C., solution containing 46.0% by weight glyphosate a.e.
[8] = MEA salt solution 29.9% a.e. by weight, IPA salt solution 30.2%

In the case of `O=C(O)CNCP(=O)(O)O`, the “Specific Gravity” value [1, 6] is reported as 1.1814.
In the case of `CCN.O=C(O)CNCP(=O)(O)O`, the “Specific Gravity” value [1, 6] is reported as 1.1599.
For `CCCN.O=C(O)CNCP(=O)(O)O`, the “Specific Gravity” value [1, 6] was 1.1429.
For `O=C(O)CNCP(=O)(O)O` [Glyphosate, N-phosphonomethylglycine], the solubility in water ([2]; 25° C.) is listed as 1.16 % by weight.
In the case of `CC(C)N.O=C(O)CNCP(=O)(O)O` [glyphosate IPA salt, isopropylammonium salt of glyphosate], the viscosity [3] is reported as 165 cPs, the “weight/volume concentration of glyphosate” value [4] is reported as 565 g a.e./l and the “glyphosate a.e. contained in 1 liter of solution” value (“glyphosate a.e. contained” below) [4] is reported as “approximately 347 g glyphosate a.e./l”. For the same molecule, the “limit of solubility in aqueous solution” value ([2]; only slightly higher than about 62% by weight) was > 62 % by weight, the Specific Gravity [1, 7] was 1.24 and the “Specific Gravity” value [1, 6] was 1.1554. For the same molecule, the Specific Gravity [1, 8] was 1.1566.
For `O=C(O)CNCP(=O)(O)O` [glyphosate MEA salt, monoethanolammonium salt of glyphosate], the viscosity [3] was 88 cPs, the “weight/volume concentration of glyphosate” value [4] was 602 g a.e./l and the “glyphosate a.e. contained” value [4] was “approximately 371 g glyphosate a.e./l”. For the same molecule, the “more glyphosate a.e. per liter than IPA salt solution” value [4] was “about 7%”, the “surfactant concentration relative to the maximum attainable using the IPA salt” value [5] was “more than 2.5 times” and the “solubility in pure water as glyphosate acid equivalent” value (Solubility in water) was “about 47 % a.e. by weight”. The “solubility in pure water as glyphosate acid equivalent” value (Solubility in water; listed as MEA salt) was “about 47 % a.e. by weight”, the “solubility in pure water” value (Solubility in water) was “about 64 % by weight” and the Specific Gravity [1, 7] was 1.32. For the same molecule, the “Specific Gravity” value ([1]; 20/18.6° C., 30% a.e. by weight monobasic salt solution, listed as monoethanolammonium (MEA)) was 1.2357, the “specific gravity higher than that of 30.2% IPA salt solution” value ([1]; 29.9% a.e. by weight MEA salt solution) was 3.7% and the Specific Gravity [1, 8] was 1.1991. The “specific gravity compared with corresponding IPA salt solution” value ([1]; all concentrations, FIG. 1) was “significantly higher”.
In the case of `O=C(O)CNCP(=O)(O)O` [glyphosate potassium salt], the “glyphosate a.e. contained” value ([4]; potassium salt) is reported as “approximately 376 g glyphosate a.e./l”, the “more glyphosate a.e. per liter than IPA salt solution” value ([4]; potassium salt) is reported as “about 8%” and the “solubility in pure water as glyphosate acid equivalent” value (Solubility in water; listed as potassium salt, potassium salt) is reported as “about 44 % a.e. by weight”. The “solubility in pure water as glyphosate acid equivalent” value (Solubility in water; potassium salt) was “about 44 % a.e. by weight”, the “solubility in pure water” value (Solubility in water; potassium salt) was “about 54 % by weight” and the “Specific Gravity” value ([1]; 20/18.6° C., 30% a.e. by weight monobasic salt solution, potassium salt) was 1.2539.
With `CN` [methylammonium] the “Specific Gravity” value [1, 6] was 1.1667.
With `C[S+](C)C.O=C([O-])CNCP(=O)(O)O` [trimethylsulfonium (TMS)] the “Specific Gravity” value [1, 6] was 1.1904.
